Consider 25 compounds from ChEMBL document CHEMBL4819141, “Ruthenium(II)- and Palladium(II)-catalyzed position-divergent CH oxygenations of arylated quinones: Identification of hydroxylated quinonoid compounds with potent trypanocidal activity” (Bioorg Med Chem, 2021).

Bounds are passed on as bounds.

For one assay, the system named is Trypanosoma cruzi. Kind of assay: Trypanocidal activity against Trypanosoma cruzi Y strain bloodstream trypomastigotes isolated from infected in Albino Swiss mouse assessed as lysis of parasite in presence of 5 % mouse blood incubated for 24 hrs by Neubauer chamber method. The class given is functional, organism-based.
In the case of `O=C1C=C(c2ccc(C(F)(F)F)cc2)C(=O)c2ccccc21`, the IC50 worked out at 335 µM.

Regarding `Cc1cccc(C2=CC(=O)c3ccccc3C2=O)c1`, the IC50 was 105 µM.

As to `COc1ccc(C2=CC(=O)c3ccccc3C2=O)cc1`, the IC50 was 303 µM.

Take `O=C1C(c2ccc(Cl)cc2)=CC(=O)c2c(O)cccc21`: the IC50 is above 1000 µM.

As for `O=C1C=C(c2ccc(Cl)cc2)C(=O)c2ccccc21`, the IC50 was above 1000 µM.

On to `O=C1C=C(c2ccccc2)C(=O)c2ccccc21`, for which the IC50 was found to be 96.8 µM.

With `O=C1C=C(c2ccc(I)cc2)C(=O)c2ccccc21`, the IC50 was above 500 µM.

Take `O=C1C(c2cccc(I)c2)=CC(=O)c2c(O)cccc21`: the concentration for half-maximal inhibition (IC50) is 35.1 µM.

Regarding `O=C1C=C(c2ccccc2F)C(=O)c2ccccc21`, the IC50 was determined as 157 µM.

Consider `O=C1C=C(c2cccc(I)c2)C(=O)c2ccccc21`, for which the IC50 came to 304 µM.

Take `Cc1cc(C)cc(C2=CC(=O)c3ccccc3C2=O)c1`: the IC50 was above 500 µM.

In the case of `Cc1ccc(C2=CC(=O)c3ccccc3C2=O)cc1`, the IC50 worked out at 185 µM.

On to `Cc1ccc(O)c(C2=CC(=O)c3ccccc3C2=O)c1`, for which the IC50 was found to be 99.2 µM.

For the compound `Cc1ccc(C)c(C2=CC(=O)c3ccccc3C2=O)c1`, the IC50 was 56.5 µM.

As to `O=C1C=C(c2ccccc2O)C(=O)c2ccccc21`, the IC50 stood at 163 µM.

For the compound `Cc1ccc(C2=CC(=O)c3c(O)cccc3C2=O)cc1`, the 50% inhibitory concentration (IC50) turned out to be 156 µM.

In the case of `O=C1C(c2ccc(I)cc2)=CC(=O)c2c(O)cccc21`, the IC50 was above 500 µM.

For `Cc1ccc(C2=CC(=O)c3ccccc3C2=O)c(O)c1`, the IC50 was determined as 72.6 µM.

Regarding `O=C1C=C(c2ccc(F)cc2)C(=O)c2ccccc21`, the IC50 was above 500 µM.

With `Cc1cccc(C2=CC(=O)c3c(O)cccc3C2=O)c1`, the IC50 is 95.4 µM.

Turning to `O=C1C(c2ccc(F)cc2)=CC(=O)c2c(O)cccc21`, the IC50 amounted to 71.5 µM.

On to `Cc1cc(C)cc(C2=CC(=O)c3c(O)cccc3C2=O)c1`, for which the IC50 was above 500 µM.

`CC(C)(C)c1ccc(C2=CC(=O)c3ccccc3C2=O)cc1`: the IC50 came out at 25.7 µM.

Consider `O=C1C(c2ccc(C(F)(F)F)cc2)=CC(=O)c2c(O)cccc21`, for which the half-inhibitory concentration (IC50) was determined as 22.8 µM.

With `O=C1C(c2ccccc2)=CC(=O)c2c(O)cccc21`, the IC50 is 115 µM.

A further assay has as its system Trypanosoma cruzi. Kind of assay: Potency index, ratio of benznidazole IC50 to test compound IC50 for trypanocidal activity against Trypanosoma cruzi Y strain bloodstream trypomastigotes isolated from infected in Albino Swiss mouse assessed as lysis of parasite in presence of 5 % mouse blood incubated for 24 hrs by Neubauer chamber method. The format is functional.
Regarding `Cc1ccc(C)c(C2=CC(=O)c3ccccc3C2=O)c1`, the “Ratio IC50” value amounted to 2.

For `Cc1ccc(C2=CC(=O)c3ccccc3C2=O)c(O)c1`, the “Ratio IC50” value was 2.5.

Take `CC(C)(C)c1ccc(C2=CC(=O)c3ccccc3C2=O)cc1`: the “Ratio IC50” value is 4.

For `O=C1C(c2ccc(C(F)(F)F)cc2)=CC(=O)c2c(O)cccc21`, the “Ratio IC50” value is given as 4.5.
